Experimental data reported in patent US20200405697A1, “Antitumor Agent” (Taiho Pharmaceutical Co., Ltd, priority 2017, published 2020).

Experiments:
[1] = test system: A549 (Human lung cancer cell line); assay: Effect of combination of sulfonamide compound and other antitumor agent (CellTiter-Glo, combination index): A549
[2] = test system: CFPAC-1 (Human pancreatic cancer cell line); assay: Effect of combination of sulfonamide compound and other antitumor agent (CellTiter-Glo, combination index): CFPAC-1;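 further: cells exposed to both agents together for 3 days, viability read by luminescence, normalized to vehicle-treated control wells, mean of triplicate wells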
Method: (§1) Each cell line was seeded at 90 L/well to a 96-well culture plate (Thermo Fisher Scientific, Inc.) according to the above tables. The cell-seeded plate was cultured in an incubator set to 37° C. and 500 CO2. On the day following seeding, varying concentrations of the sulfonamide compound and the other antitumor agent were added in combination to the cells. […] The serial dilutions of each compound, or DW was added at 5μL/well to the plate such that each compound and DW, or the sulfonamide compound and the other antitumor agent were combined. […] The plate after the addition was cultured at 37° C. for 3 days under 5% CO2 conditions.
(§2) Three days later, CellTiter-Glo(R) 2.0 Reagent (Promega Corporation) was added at 100 μL/well, and the amount of luminescence was measured using a plate reader EnSpire(R) Multimode Plate Reader (PerkinElmer Co., Ltd.).
(§3) An average value from 3 wells was calculated as to each drug condition from the obtained data, and cell survival rate normalized against control wells supplemented with the vehicle (DW) was calculated. A Fa (fractional inhibition) value was calculated by subtracting the cell survival rate from 1.

[3] = test system: HCT116 (Human large intestine cancer cell line); assay: Effect of combination of sulfonamide compound and other antitumor agent (CellTiter-Glo, combination index): HCT116; assay type: cell-based
Method: as §1, §2, §3

MV-4-11 = assay: Antitumor effect in human-derived blood cancer cell line (MV-4-11) subcutaneous transplantation model (in vivo); design: species or system nude mouse (BALB/cA Jcl-nu/nu); conditions: oral, 100 mg/kg/day once per day for 14 days; RTV vs control group, Student-t test, p<0.05
Method: A human-derived blood cancer cell line MV-4-11 was transplanted subcutaneously into a nude mouse (BALB/cA Jcl-nu/nu, CLEA Japan, Inc.), and at the time when the tumor volume of the nude mouse on which the engrafted tumor reached 100 to 300 mm^3, four mice were assigned to each group by random stratification so that the average of the tumor volumes of each group was uniform (day 0), and the Example compound was orally administered daily at 100 mg/kg/day once per day for 14 days. Example Compound dosing solutions were prepared using 0.5% HPMC.
An electric balance for animals was used in body weight measurement. Rate of change in body weight on day n (BWCn) from body weight on day n (BWn) was calculated according to the following equation.
Rate of change in body weight BWCn (%)=(BWn−BW0)/BW0×100
Tumor volume (TV) was calculated according to the following equation by sandwiching and measuring the major axis and the minor axis with a digital caliper.
Tumor volume (mm^3)=Major axis (mm)×Minor axis (mm)×Minor axis (mm)/2
In order to compare the chronological transition of proliferation of tumor for the administration of each compound, relative tumor volume (RTV) setting the tumor volume at the time of grouping as 1 as the tumor proliferation rate was calculated according to the following formula, and the transition of the average value of RTV of each individual are shown in FIGS. 1 to 4.
RTV=(tumor volume at the day of tumor volume measurement)/(tumor volume at the time of the grouping)

[4] = Example Compound 14 874 nM + SCH900776 909 nM
[5] = Example Compound 14 1310 nM + SCH900776 1360 nM
[6] = Example Compound 14 1970 nM + SCH900776 2050 nM
[7] = Example Compound 14 2950 nM + SCH900776 3070 nM
[8] = Example Compound 209A 188 nM + SCH900776 909 nM
[9] = Example Compound 209A 282 nM + SCH900776 1360 nM
[10] = Example Compound 209A 635 nM + SCH900776 3070 nM
[11] = Example Compound 235A 231 nM + SCH900776 909 nM
[12] = Example Compound 235A 346 nM + SCH900776 1360 nM
[13] = Example Compound 235A 520 nM + SCH900776 2050 nM
[14] = Example Compound 235A 780 nM + SCH900776 3070 nM
[15] = Example Compound 235A 1170 nM + SCH900776 4610 nM
[16] = Example Compound 5 466 nM + SCH900776 253 nM
[17] = Example Compound 5 700 nM + SCH900776 379 nM
[18] = Example Compound 14 925 nM + SCH900776 253 nM
[19] = Example Compound 14 1390 nM + SCH900776 380 nM
[20] = Example Compound 14 2080 nM + SCH900776 569 nM
[21] = Example Compound 209A 226 nM + SCH900776 253 nM
[22] = Example Compound 209A 508 nM + SCH900776 568 nM
[23] = Example Compound 235A 321 nM + SCH900776 253 nM
[24] = Example Compound 235A 481 nM + SCH900776 379 nM
[25] = Example Compound 235A 722 nM + SCH900776 569 nM
[26] = Example Compound 14 4420 nM + Gemcitabine 8.38 nM
[27] = Example Compound 209A 635 nM + Gemcitabine 5.60 nM
[28] = Example Compound 209A 952 nM + Gemcitabine 8.39 nM
[29] = Example Compound 235A 780 nM + Gemcitabine 5.60 nM
[30] = Example Compound 235A 1170 nM + Gemcitabine 8.40 nM
[31] = Example Compound 5 1050 nM + Gemcitabine 5.28 nM
[32] = Example Compound 14 2080 nM + Gemcitabine 5.28 nM
[33] = Example Compound 14 3120 nM + Gemcitabine 7.92 nM
[34] = Example Compound 209A 508 nM + Gemcitabine 5.28 nM
[35] = Example Compound 235A 722 nM + Gemcitabine 5.28 nM
[36] = Example Compound 5 567 nM + Prexasertib 10.7 nM
[37] = Example Compound 5 851 nM + Prexasertib 16.1 nM
[38] = Example Compound 14 1000 nM + Prexasertib 7.14 nM
[39] = Example Compound 14 1500 nM + Prexasertib 10.7 nM
[40] = Example Compound 14 2250 nM + Prexasertib 16.1 nM
[41] = Example Compound 209A 187 nM + Prexasertib 7.13 nM
[42] = Example Compound 209A 281 nM + Prexasertib 10.7 nM
[43] = Example Compound 209A 421 nM + Prexasertib 16.1 nM
[44] = HCT116, Example Compound 235A 317 nM combined with Prexasertib 7.15 nM, molar ratio 1:0.02255
[45] = HCT116, Example Compound 235A 475 nM combined with Prexasertib 10.7 nM, molar ratio 1:0.02255
[46] = HCT116, Example Compound 235A 712 nM combined with Prexasertib 16.1 nM, molar ratio 1:0.02255
[47] = Example Compound 14 874 nM + Prexasertib 1.97 nM
[48] = Example Compound 14 1310 nM + Prexasertib 2.96 nM
[49] = Example Compound 14 1970 nM + Prexasertib 4.45 nM
[50] = Example Compound 209A 188 nM + Prexasertib 1.97 nM
[51] = Example Compound 209A 282 nM + Prexasertib 2.96 nM
[52] = Example Compound 235A 231 nM + Prexasertib 1.97 nM
[53] = Example Compound 235A 346 nM + Prexasertib 2.96 nM
[54] = Example Compound 235A 520 nM + Prexasertib 4.44 nM
[55] = Example Compound 5 311 nM + Prexasertib 1.89 nM
[56] = Example Compound 5 466 nM + Prexasertib 2.84 nM
[57] = Example Compound 5 700 nM + Prexasertib 4.26 nM
[58] = Example Compound 14 616 nM + Prexasertib 1.89 nM
[59] = Example Compound 14 925 nM + Prexasertib 2.84 nM
[60] = Example Compound 14 1390 nM + Prexasertib 4.27 nM
[61] = Example Compound 209A 151 nM + Prexasertib 1.90 nM
[62] = Example Compound 209A 226 nM + Prexasertib 2.84 nM
[63] = Example Compound 235A 214 nM + Prexasertib 1.89 nM
[64] = Example Compound 235A 321 nM + Prexasertib 2.84 nM
[65] = Example Compound 235A 481 nM + Prexasertib 4.26 nM

SMILES: Cn1cc(-c2cnn3c(N)c(Br)c([C@@H]4CCCNC4)nc23)cn1 [SCH900776]
- CI value [1, 4]: 0.194
- Fa value [1, 4]: 0.6512
- CI value [1, 5]: 0.184
- Fa value [1, 5]: 0.7883
- CI value [1, 6]: 0.191
- Fa value [1, 6]: 0.8714
- CI value [1, 7]: 0.271
- Fa value [1, 7]: 0.8814
- CI value [1, 8]: 0.180
- Fa value [1, 8]: 0.6553
- CI value [1, 9]: 0.170
- Fa value [1, 9]: 0.7965
- CI value [1, 10]: 0.273
- Fa value [1, 10]: 0.8744
- CI value [1, 11]: 0.262
- Fa value [1, 11]: 0.6135
- CI value [1, 12]: 0.280
- Fa value [1, 12]: 0.7038
- CI value [1, 13]: 0.275
- Fa value [1, 13]: 0.8035
- CI value [1, 14]: 0.275
- Fa value [1, 14]: 0.8771
- CI value [1, 15]: 0.430
- Fa value [1, 15]: 0.8705
- CI value [2, 16]: 0.283
- Fa value [2, 16]: 0.6428
- CI value [2, 17]: 0.283
- Fa value [2, 17]: 0.7803
- CI value [2, 18]: 0.465
- Fa value [2, 18]: 0.4714
- CI value [2, 19]: 0.322
- Fa value [2, 19]: 0.7231
- CI value [2, 20]: 0.409
- Fa value [2, 20]: 0.7671
- CI value [2, 21]: 0.385
- Fa value [2, 21]: 0.5579
- CI value [2, 22]: 0.474
- Fa value [2, 22]: 0.7649
- CI value [2, 23]: 0.474
- Fa value [2, 23]: 0.4978
- CI value [2, 24]: 0.382
- Fa value [2, 24]: 0.7223
- CI value [2, 25]: 0.484
- Fa value [2, 25]: 0.7722

SMILES: Nc1ccn([C@@H]2O[C@H](CO)[C@@H](O)C2(F)F)c(=O)n1 [Gemcitabine, gemcitabine]
- CI value [1, 26]: 0.752
- Fa value [1, 26]: 0.8565
- CI value [1, 27]: 0.792
- Fa value [1, 27]: 0.7031
- CI value [1, 28]: 0.791
- Fa value [1, 28]: 0.8749
- CI value [1, 29]: 0.844
- Fa value [1, 29]: 0.6511
- CI value [1, 30]: 0.714
- Fa value [1, 30]: 0.8624
- CI value [2, 31]: 0.788
- Fa value [2, 31]: 0.6974
- CI value [2, 32]: 0.756
- Fa value [2, 32]: 0.6749
- CI value [2, 33]: 0.752
- Fa value [2, 33]: 0.7790
- CI value [2, 34]: 0.736
- Fa value [2, 34]: 0.6998
- CI value [2, 35]: 0.722
- Fa value [2, 35]: 0.6762

SMILES: COc1cccc(OCCCN)c1-c1cc(Nc2cnc(C#N)cn2)n[nH]1 [Prexasertib, prexasertib]
- CI value [3, 36]: 0.289
- Fa value [3, 36]: 0.7563
- CI value [3, 37]: 0.180
- Fa value [3, 37]: 0.9499
- CI value [3, 38]: 0.535
- Fa value [3, 38]: 0.3054
- CI value [3, 39]: 0.208
- Fa value [3, 39]: 0.8469
- CI value [3, 40]: 0.174
- Fa value [3, 40]: 0.9453
- CI value [3, 41]: 0.792
- Fa value [3, 41]: 0.1703
- CI value [3, 42]: 0.230
- Fa value [3, 42]: 0.8191
- CI value [3, 43]: 0.173
- Fa value [3, 43]: 0.9441
- CI value [3, 44]: 0.557
- Fa value [3, 44]: 0.3131
- CI value [3, 45]: 0.224
- Fa value [3, 45]: 0.8595
- CI value [3, 46]: 0.197
- Fa value [3, 46]: 0.9459
- CI value [1, 47]: 0.277
- Fa value [1, 47]: 0.4973
- CI value [1, 48]: 0.193
- Fa value [1, 48]: 0.7864
- CI value [1, 49]: 0.177
- Fa value [1, 49]: 0.8986
- CI value [1, 50]: 0.258
- Fa value [1, 50]: 0.5015
- CI value [1, 51]: 0.189
- Fa value [1, 51]: 0.7685
- CI value [1, 52]: 0.331
- Fa value [1, 52]: 0.4315
- CI value [1, 53]: 0.191
- Fa value [1, 53]: 0.7784
- CI value [1, 54]: 0.174
- Fa value [1, 54]: 0.8915
- CI value [2, 55]: 0.579
- Fa value [2, 55]: 0.3644
- CI value [2, 56]: 0.413
- Fa value [2, 56]: 0.6946
- CI value [2, 57]: 0.525
- Fa value [2, 57]: 0.7564
- CI value [2, 58]: 0.886
- Fa value [2, 58]: 0.2455
- CI value [2, 59]: 0.452
- Fa value [2, 59]: 0.6771
- CI value [2, 60]: 0.514
- Fa value [2, 60]: 0.7725
- CI value [2, 61]: 0.735
- Fa value [2, 61]: 0.3163
- CI value [2, 62]: 0.558
- Fa value [2, 62]: 0.6872
- CI value [2, 63]: 0.645
- Fa value [2, 63]: 0.3469
- CI value [2, 64]: 0.344
- Fa value [2, 64]: 0.6687
- CI value [2, 65]: 0.372
- Fa value [2, 65]: 0.7578

SMILES: Cc1c(Cl)ccc(F)c1[C@@H](C)[C@H](NS(=O)(=O)c1ccc(Cl)c2c1OCCC2(C)O)c1n[nH]c(=O)o1 (single isomer, unassigned) [Example 228A]
- antitumor effect (relative tumor volume, RTV) (MV-4-11): antitumor effect
